Consider one compound from patent US10435364B2, “Compounds for use as bromodomain inhibitors” (Albert Ludwigs Universität Freiburg, priority 2013, dated 2019).

For one data set, the target named is T1, BRD4-BD1 (Homo sapiens, UniProt O60885).
T1 construct: BRD4-BD1 was expressed and purified as described previously; made in house
Put plainly: Isothermal titration calorimetry (ITC), dissociation constant. The format is binding. In general terms: ITC needs no label: the signal is the heat of the interaction.

The next data set concerns HeLa. Put plainly: Antiproliferative activity, HeLa cells. The data set is classed as cell-based. To be noted: at a high concentration of 50 μM. As to the method:
BRD4 is a validated therapeutic target in NUT midline carcinoma and in acute myeloid and MLL-fusion leukaemia. The proliferation inhibition potential of the virtual screening hits in HL-60 and HeLa cell lines for the compound of formula (4) was assessed.

The subject of the next data set is leukaemia cell lines. In words: NCI-60 DTP Human Tumour Cell Line Screen, leukaemia panel. To be noted: NCI-60 screen, 10 μM. The format is cell-based.
The next data set has as its system HL-60(TB). In words: NCI-60 DTP Human Tumour Cell Line Screen. To be noted: NCI-60 screen, 10 μM, leukaemia panel. The data set is classed as cell-based.
A further data set concerns SR. Put plainly: NCI-60 DTP Human Tumour Cell Line Screen. The format is cell-based. To be noted: NCI-60 screen, 10 μM, leukaemia panel.
In another data set the test system is OVCAR-5. In words: NCI-60 DTP Human Tumour Cell Line Screen. The format is cell-based. To be noted: NCI-60 screen, 10 μM, ovarian cancer.
For a further data set, the system named is COLO 205. Put plainly: NCI-60 DTP Human Tumour Cell Line Screen. The format is cell-based. To be noted: NCI-60 screen, 10 μM, colon cancer.
For a further data set, the system named is mice (male and female). In words: Toxicity screening, single dose. The data set is classed as in vivo. The source says:
[…]. All studied organs and tissues had the structure characteristics and relative body weights for normal animals.

A further data set concerns T2, BET bromodomain family.
T2 construct: other: BROMOscan
Put plainly: BROMOscan selectivity profile. The format is binding, human. On the procedure: (§1) Bromodomain profiling was carried out on the basis of BROMOscan™. This platform accounted for the indirect determination of the dissociation constants between 19 bromodomains and the compound of formula (4), by binding competition against a reference immobilized ligand.
(§2) The target selectivity of the compound of formula (4) within the human BRD family was assessed by means of BROMOscan™. The binding of the compound to at least one representative protein of each BRD family was assessed.
Sphere size and colour indicate the binding affinity of the compound of formula (4) to the specific BRDs, as observed in the BROMOscan™ assay. Additionally, binding to PB1-BD4 was assessed by local ITC measurements. The dissociation constant (Kd) corresponding to each BRD in complex with the compound of formula (4) is indicated. […]

Another data set concerns the target T3, BRD2(1) (Homo sapiens, UniProt P25440).
T3 construct: T7 phage strains displaying bromodomains; host or cells: T7 phage display in E. coli host derived from BL21
Put plainly: BROMOscan. The data set is classed as binding. To be noted: BROMOscan.

A further data set addresses T4, BRD3(1) (Homo sapiens, UniProt Q15059).
T4 construct: T7 phage strains displaying bromodomains; host or cells: T7 phage display in E. coli host derived from BL21
Put plainly: BROMOscan. The format is binding. To be noted: BROMOscan.

The target of the next data set is T5, BRD3(2) (Homo sapiens, UniProt Q15059).
T5 construct: T7 phage strains displaying bromodomains; host or cells: T7 phage display in E. coli host derived from BL21
In words: BROMOscan. The data set is classed as binding. To be noted: BROMOscan.

The target in the next data set is T6, BRD4(1) (Homo sapiens, UniProt O60885).
T6 construct: T7 phage strains displaying bromodomains; host or cells: T7 phage display in E. coli host derived from BL21
In words: BROMOscan. The data set is classed as binding. To be noted: BROMOscan, n=2; read-out: dissociation constant (Kd) in complex with BRD4-BD1.

The next data set deals with T7, CREBBP (Homo sapiens, UniProt Q92793).
T7 construct: T7 phage strains displaying bromodomains; host or cells: T7 phage display in E. coli host derived from BL21
In words: BROMOscan. To be noted: BROMOscan; read-out: binding affinity to CREBBP. The data set is classed as binding. As to the method:
as §1, §2
(§3) Bromodomain profiling was carried out on the basis of BROMOscan™, which is a leading platform for identifying small molecule bromodomain inhibitors. BROMOscan™ employs a proprietary ligand binding site-directed competition assay to quantitatively measure interactions between test compounds and bromodomains. The reliable assay panel is suitable for high-throughput screening and delivers quantitative ligand binding data.
(§4) Compounds that bind the bromodomain prevent its binding to the immobilized ligand thus reducing the amount of protein captured. […] Hits are identified by measuring the amount of bromodomain captured in test versus control samples.
(§5) Bromodomain assays: T7 phage strains displaying bromodomains were grown in parallel in 24-well blocks in an E. coli host derived from the BL21 strain. E. coli were grown to log-phase and infected with T7 phage from a frozen stock (multiplicity of infection=0.4) and incubated with shaking at 32° C. until lysis (90-150 minutes). The lysates were centrifuged (5,000×g) and filtered (0.2 μm) to remove cell debris. […] The bound beads were blocked with excess biotin and washed with blocking buffer (SeaBlock (Pierce), 1% BSA, 0.05% Tween 20, 1 mM DTT) to remove unbound ligand and to reduce non-specific phage binding. […] Test compounds were prepared as 1000× stocks in 100% DMSO and subsequently diluted 1:25 in mono ethylene glycol (MEG). The compounds were then diluted directly into the assays such that the final concentrations of DMSO and MEG were 0.1% and 2.4%, respectively. All reactions were performed in polypropylene 384-well plates in a final volume of 0.02 ml. […] The bromodomain concentration in the eluates was measured by qPCR.
(§6) The % Ctrl values were determined as follows: % Ctrl=[(test compound signal-positive control signal)/(negative control signal-positive control signal)]×100
(§7) For 7 bromodomains other than the bromodomains from the BET family dissociation constants Kd were determined and the results are given in Table 3.

The next data set has as its target T8, EP300 (Homo sapiens, UniProt Q09472).
T8 construct: T7 phage strains displaying bromodomains; host or cells: T7 phage display in E. coli host derived from BL21
T8 sequence (Q09472 1049-1156 limits assumed): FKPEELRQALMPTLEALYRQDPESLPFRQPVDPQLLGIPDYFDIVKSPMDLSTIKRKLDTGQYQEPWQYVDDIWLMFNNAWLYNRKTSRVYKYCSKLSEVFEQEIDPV
In words: BROMOscan. The format is binding. To be noted: BROMOscan; read-out: binding affinity to EP300. As to the method: as §1, §2, §3, §4, §5, §6, §7

Where two headings read alike, the source gives them in different places.

T5 sequence (Q15059 306-415 limits assumed): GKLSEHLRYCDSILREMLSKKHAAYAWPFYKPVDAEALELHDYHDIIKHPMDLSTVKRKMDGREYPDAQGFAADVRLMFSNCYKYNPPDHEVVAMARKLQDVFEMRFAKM
T7 sequence (Q92793 1085-1192 limits assumed): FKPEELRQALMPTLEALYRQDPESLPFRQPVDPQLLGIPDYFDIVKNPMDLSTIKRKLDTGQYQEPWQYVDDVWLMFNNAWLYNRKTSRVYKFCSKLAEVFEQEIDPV
T3 sequence (P25440 74-180 limits assumed): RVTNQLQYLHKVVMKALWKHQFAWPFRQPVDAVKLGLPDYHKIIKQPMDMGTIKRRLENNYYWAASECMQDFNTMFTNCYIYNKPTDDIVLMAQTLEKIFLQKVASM
T4 sequence (Q15059 34-140 limits assumed): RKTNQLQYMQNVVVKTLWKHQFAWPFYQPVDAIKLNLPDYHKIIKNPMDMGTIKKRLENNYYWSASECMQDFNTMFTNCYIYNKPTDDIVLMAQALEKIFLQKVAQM
Procedure for BRD4-BD1: Data were obtained in discrete titration experiments with an injection volume of 12 μl per injection. Subsequently, the heats per injection were calculated as integrals and after normalization against the molar concentrations plotted against the molar ratio as implemented in Microcal Origin. Finally, data were fitted according to a single set of sites binding model with
[formula] as function to calculate the overall sum of heat of the titration and with
[formula] […] A correction term was included to compensate for displacement of volume of the sample cell in the course of subsequent injections according to the manufacturer's manual “ITC Data Analysis in Origin” (Microcal).
The dissociation constant has molar units which correspond to the concentration of ligand at which the binding site on a particular protein is half occupied, i.e. the concentration of the ligand at which the concentration of protein with ligand bound equals the concentration of protein with no ligand bound. The smaller the dissociation constant, the higher the affinity between ligand and protein.

Take `CCc1c(C(=O)Nc2cc(S(=O)(=O)N(CC)CC)ccc2O)[nH]c(C)c1C(C)=O` [compound of formula (4)]: the Kd at BRD4-BD1 (ITC, 25° C., read-out: dissociation constant Kd for BRD4-BD1) is 300 nM; on BRD4-BD1 (Table 1, target not given, values of formula (4) and (3) match ITC Kd for BRD4-BD1, read-out: pKd (converted)) it was 316 nM; at BRD4(1), 160 nM; at CREBBP it was ~3500 nM; at EP300 it was ~3500 nM. Further, the “antiproliferative activity against HeLa” value with HeLa is on record as “no antiproliferative activity”. The “activity against the leukaemia cell lines” value in the data set with leukaemia cell lines is “potent and selective activity”. The “sensitivity in the cell line screen (growth inhibition)” value in the data set on HL-60(TB) is “most sensitive”; with SR, “most sensitive”; in the data set on OVCAR-5, “most resistant”; with COLO 205, “most resistant”. Besides, the LD50 entry with mice (male and female) (mice (male and female), single dose) was “higher than 2000 mg/kg of body weight”. In addition, in the data set with mice (male and female) (mouse, in vivo, 2000 mg/kg), the signs of toxicity result is reported as “did not induce any signs of toxicity”. Also, the “binding specificity within the human BRD family” value in the data set with BET bromodomain family was “bind specifically to the BET bromodomain family”. Also, the “affinity to BRD2-BD1” value on BRD2(1) is recorded as “nM range”. For the same compound, the “affinity to BRD3 (both BRDs), BD1” value on BRD3(1) was “nM range”. On BRD3(2), the “affinity to BRD3 (both BRDs), BD2” value is recorded as “nM range”.
